We go through 14 compounds from patent publication US11147272B2, “Pyridone compounds and agricultural and horticultural fungicides comprising the same as active ingredients” (MITSUI CHEMICALS AGRO, INC., priority 2017, dated 2021).

One assay deals with Botrytis cinerea. Put plainly: Test Example B: Gray mold on tomato. To be noted: for pest or weed control at 250 µg/mL / pest or weed control at 250 ppm: Botrytis cinerea, in Solanum lycopersicum, topical, read-out: Test B control value; for Test B control value class: Gray mold on tomato, class of control value.
Another assay has as its system Puccinia recondita. Nature of the assay: Test Example E: Brown rust on wheat. It is filed as in vivo. To be noted: for pest or weed control at 250 µg/mL / pest or weed control at 250 ppm: Puccinia recondita, topical; for pest or weed control at 250 µg/mL / Test E control value class: Brown rust on wheat; for pest or weed control at 250 µg/mL: control value class, read-out: Test E control value; for pest or weed control at 250 ppm: 250 ppm drug solution sprayed on test plant; for Test E control value class: class of control value.

The subject of the next assay is Phytophthora infestans. Put plainly: whole plant or invertebrate. To be noted: for pest or weed control at 250 µg/mL / pest or weed control at 250 ppm: Phytophthora infestans, in Solanum lycopersicum, topical, read-out: Test F control value; for Test F control value class: Late blight on tomato, class of control value. It is filed as in vivo.
The test system of a further assay is Alternaia brassicicola. Put plainly: Test Example C: Alternaria sooty spot on cabbage. To be noted: for pest or weed control at 250 µg/mL: Brassica oleracea, control value class, read-out: Test C control value; for pest or weed control at 250 µg/mL / pest or weed control at 250 ppm: topical; for pest or weed control at 250 µg/mL / Test C control value class: Alternaria sooty spot on cabbage; for pest or weed control at 250 ppm: 250 ppm drug solution sprayed on test plant; for Test C control value class: class of control value. It is filed as in vivo. The text has this:
Seeds of a test plant (cabbage variety: Shikidori) were planted and cultivated until the cotyledons extended.
<Control Value> Control value=100{1−(n/3)}

For assay [1], the system named is Blumeria graminis f. sp. hordei. Put plainly: Test Example D: Powdery mildew on barley. Conditions: for pest or weed control at 250 µg/mL / pest or weed control at 250 ppm: Blumeria graminis, in Hordeum vulgare, topical, read-out: Test D control value; for Test D control value class: Powdery mildew on barley, class of control value.
Another assay has as its system Magnaporthe grisea. Nature of the assay: whole plant or invertebrate. It is filed as in vivo. To be noted: for pest or weed control at 250 µg/mL / pest or weed control at 250 ppm: Pyricularia oryzae, in Oryza sativa, read-out: Test A control value; for Test A control value class: Blast on rice, class of control value.
The test system of assay [2] is Colletotrichum orbiculare. Nature of the assay: Test Example H: Anthracnose on cucumber. Conditions: for pest or weed control at 250 ppm: Colletotrichum orbiculare, in Cucumis sativus, topical, 144 h, read-out: Test H control value; for Test H control value class: Anthracnose on cucumber (Sagami Hanjiro), 250 ppm spray, 2.5 ml/pot, assessed 6 to 10 days after inoculation.

The test system of another assay is Plasmopara viticola. Put plainly: Test Example G: Downy mildew on vine. Conditions: for pest or weed control at 250 ppm: Plasmopara viticola, topical, 168 h, read-out: Test G control value; for Test G control value class: Downy mildew on vine (Neomuscat), 250 ppm spray, 2.5 ml/pot, assessed 7 to 10 days after inoculation.

Where only a bound is given, the exact number is not on record here.

As to `CCn1c(-c2c(F)cccc2F)c(C(C)(OC)C(C)C)cc(Cl)c1=O` (stereo not shown) [Compound No. 187, 3-chloro-6-(2,6-difluorophenyl)-1-ethyl-5-(2-methoxy-3-methylbutan-2-yl)pyridin-2(1H)-one], the pest or weed control at 250 µg/mL with Botrytis cinerea is above 50%; in the assay with Puccinia recondita, above 50%; with Phytophthora infestans, below 50%; with Alternaia brassicicola it was above 50%; in assay [1] it was above 50%; with Magnaporthe grisea it was above 50%. In addition, the pest or weed control at 250 ppm (in assay [2]; with Plasmopara viticola) was above 50% throughout.
As for `CCn1c(-c2c(F)cc(F)cc2F)c(C=O)cc(Cl)c1=O` [Compound No. 289, 5-chloro-1-ethyl-6-oxo-2-(2,4,6-trifluorophenyl)-1,6-dihydropyridine-3-carbaldehyde], the pest or weed control at 250 µg/mL with Botrytis cinerea is above 50%; with Puccinia recondita it was above 50%; in the assay on Phytophthora infestans it was below 50%; in the assay with Alternaia brassicicola, above 50%; in assay [1], below 50%; in the assay on Magnaporthe grisea, below 50%. The figures for the pest or weed control at 250 ppm (in assay [2]; in the assay with Plasmopara viticola) were above 50% and below 50%, respectively.
Regarding `CCn1c(-c2ccc(F)cc2Cl)c(C=C(C)C)cc(Cl)c1=O` [Compound No. 300, 3-chloro-6-(2-chloro-4-fluorophenyl)-1-ethyl-5-(2-methyl-1-propenyl)pyridin-2(1H)-one], the pest or weed control at 250 µg/mL with Botrytis cinerea was above 50%; in the assay with Puccinia recondita it was above 50%; in the assay on Phytophthora infestans it was below 50%; with Alternaia brassicicola it was above 50%; in assay [1], above 50%; with Magnaporthe grisea it was above 50%. Moreover, the results for the pest or weed control at 250 ppm (in assay [2]; with Plasmopara viticola) were above 50% and below 50%, respectively.
Regarding `CCCc1cc(Br)c(=O)n(C)c1-c1ccc(F)cc1Cl` [Compound No. 333, 3-bromo-6-(2-chloro-4-fluorophenyl)-1-methyl-5-propylpyridin-2(1H)-one], the pest or weed control at 250 µg/mL is above 50% with Botrytis cinerea; above 50% in the assay on Puccinia recondita; below 50% with Phytophthora infestans; above 50% in the assay with Alternaia brassicicola; below 50% in assay [1]; above 50% with Magnaporthe grisea. Also, the pest or weed control at 250 ppm was above 50% in assay [2] and below 50% in the assay with Plasmopara viticola.
Take `CCCc1cc(C)c(=O)n(C)c1-c1ccc(F)cc1Cl` [Compound No. 339, 6-(2-chloro-4-fluorophenyl)-1,3-dimethyl-5-propylpyridin-2(1H)-one]: the pest or weed control at 250 µg/mL in the assay on Botrytis cinerea is above 50%; in the assay on Puccinia recondita it was above 50%; in the assay on Phytophthora infestans it was below 50%; with Alternaia brassicicola it was below 50%; in assay [1], above 50%; with Magnaporthe grisea it was above 50%. The pest or weed control at 250 ppm (in assay [2]; with Plasmopara viticola) was above 50% throughout.
As for `CCn1c(-c2c(F)cc(F)cc2F)c(C(O)C(F)(F)F)cc(Cl)c1=O` (stereo not shown) [Compound No. 515, 3-chloro-1-ethyl-5-(2,2,2-trifluoro-1-hydroxyethyl)-6-(2,4,6-trifluorophenyl)pyridin-2(1H)-one], the pest or weed control at 250 ppm in the assay with Botrytis cinerea was above 50%; with Puccinia recondita, above 50%; in the assay on Phytophthora infestans, below 50%; in the assay with Alternaia brassicicola it was below 50%; in assay [1], below 50%; in the assay on Magnaporthe grisea, above 50%. Besides, the pest or weed control at 250 ppm (in assay [2]; in the assay with Plasmopara viticola) was above 50% each time.
Turning to `CCn1c(-c2c(F)cc(F)cc2F)c(C(OC)C(F)(F)F)cc(Cl)c1=O` (stereo not shown) [Compound No. 516, 3-Chloro-1-ethyl-5-(2,2,2-trifluoro-1-methoxyethyl)-6-(2,4,6-trifluorophenyl)pyridin-2(1H)-one], the pest or weed control at 250 ppm with Botrytis cinerea was above 50%; in the assay with Puccinia recondita, above 50%; in the assay on Phytophthora infestans, below 50%; with Alternaia brassicicola, above 50%; in assay [1] it was above 50%; in the assay with Magnaporthe grisea, above 50%. For the same compound, the pest or weed control at 250 ppm (in assay [2]; with Plasmopara viticola) was above 50% in each case.
With `CCn1c(-c2c(F)cc(OC)cc2F)c(C(OC)C(F)(F)F)cc(Cl)c1=O` (stereo not shown) [Compound No. 518, 3-chloro-6-(2,6-difluoro-4-methoxyphenyl)-1-ethyl-5-(2,2,2-trifluoro-1-methoxyethyl)pyridin-2(1H)-one], the pest or weed control at 250 ppm with Botrytis cinerea is above 50%; in the assay on Puccinia recondita it was above 50%; in the assay on Phytophthora infestans it was below 50%; in the assay on Alternaia brassicicola it was above 50%; in assay [1] it was above 50%; with Magnaporthe grisea, above 50%. Also, the pest or weed control at 250 ppm is above 50% in assay [2] and below 50% in the assay on Plasmopara viticola.
On to `Cc1ccc(=O)n(C)c1-c1c(F)cccc1F` [compound 3], for which the “Test B control value class” value in the assay on Botrytis cinerea is “L (50% or less control value)”. The “Test E control value class” value in the assay with Puccinia recondita is listed as “L (50% or less control value)”. The “Test F control value class” value in the assay with Phytophthora infestans is “L (50% or less control value)”. The “Test C control value class” value in the assay with Alternaia brassicicola is “H (more than 50% control value)”. For the same compound, the “Test D control value class” value in assay [1] is listed as “L (50% or less control value)”. The “Test A control value class” value in the assay on Magnaporthe grisea is on record as “L (50% or less control value)”. Also, the “Test H control value class” value in assay [2] was “L (50% or less control value)”. For the same compound, in the assay with Plasmopara viticola, the “Test G control value class” value was “L (50% or less control value)”.
As for `Cc1cc(Cl)c(=O)n(C)c1-c1c(F)cccc1F` [compound 4], the “Test B control value class” value in the assay on Botrytis cinerea is listed as “L (50% or less control value)”. The “Test E control value class” value in the assay with Puccinia recondita is “L (50% or less control value)”. Besides, in the assay with Phytophthora infestans, the “Test F control value class” value was “H (more than 50% control value)”. Also, the “Test C control value class” value in the assay with Alternaia brassicicola is recorded as “H (more than 50% control value)”. In addition, the “Test D control value class” value in assay [1] is recorded as “L (50% or less control value)”. Further, in the assay with Magnaporthe grisea, the “Test A control value class” value was “H (more than 50% control value)”. The “Test H control value class” value in assay [2] is “L (50% or less control value)”. Moreover, the “Test G control value class” value in the assay on Plasmopara viticola is reported as “L (50% or less control value)”.
Turning to `CCn1c(-c2c(F)cccc2F)c(C(C)C)ccc1=O` [compound 5], the “Test B control value class” value in the assay on Botrytis cinerea is given as “H (more than 50% control value)”. In addition, the “Test E control value class” value in the assay on Puccinia recondita is listed as “H (more than 50% control value)”. Besides, the “Test F control value class” value in the assay on Phytophthora infestans was “L (50% or less control value)”. In addition, the “Test C control value class” value with Alternaia brassicicola is given as “H (more than 50% control value)”. Also, in assay [1], the “Test D control value class” value was “H (more than 50% control value)”. The “Test A control value class” value in the assay on Magnaporthe grisea was “H (more than 50% control value)”. In addition, the “Test H control value class” value in assay [2] is reported as “H (more than 50% control value)”. The “Test G control value class” value with Plasmopara viticola was “L (50% or less control value)”.
As to `CCn1c(-c2c(F)cccc2F)c(C(C)C)cc(Cl)c1=O` [compound 6], in the assay on Botrytis cinerea, the “Test B control value class” value is “H (more than 50% control value)”. The “Test E control value class” value in the assay on Puccinia recondita was “H (more than 50% control value)”. The “Test F control value class” value with Phytophthora infestans was “L (50% or less control value)”. Moreover, the “Test C control value class” value in the assay on Alternaia brassicicola was “H (more than 50% control value)”. In assay [1], the “Test D control value class” value is on record as “H (more than 50% control value)”. For the same compound, in the assay on Magnaporthe grisea, the “Test A control value class” value is “H (more than 50% control value)”. Further, the “Test H control value class” value in assay [2] is given as “H (more than 50% control value)”. Further, the “Test G control value class” value in the assay with Plasmopara viticola was “L (50% or less control value)”.
As for `CCn1c(-c2c(F)cc(F)cc2F)c(C(C)C)cc(Br)c1=O` [compound 9], in the assay with Botrytis cinerea, the “Test B control value class” value is reported as “H (more than 50% control value)”. For the same compound, the “Test E control value class” value in the assay on Puccinia recondita is reported as “H (more than 50% control value)”. The “Test F control value class” value in the assay on Phytophthora infestans was “L (50% or less control value)”. The “Test C control value class” value with Alternaia brassicicola was “H (more than 50% control value)”. Moreover, the “Test D control value class” value in assay [1] is on record as “H (more than 50% control value)”. In the assay on Magnaporthe grisea, the “Test A control value class” value is “H (more than 50% control value)”. Moreover, in assay [2], the “Test H control value class” value is “H (more than 50% control value)”. Besides, in the assay with Plasmopara viticola, the “Test G control value class” value was “H (more than 50% control value)”.
For `CCn1c(-c2c(F)cc(OC)cc2F)c(C(C)C)cc(Br)c1=O` [compound 12], the “Test B control value class” value in the assay with Botrytis cinerea is recorded as “H (more than 50% control value)”. Further, the “Test E control value class” value in the assay with Puccinia recondita was “H (more than 50% control value)”. In the assay with Phytophthora infestans, the “Test F control value class” value was “L (50% or less control value)”. The “Test C control value class” value in the assay on Alternaia brassicicola was “H (more than 50% control value)”. Also, the “Test D control value class” value in assay [1] is given as “H (more than 50% control value)”. For the same compound, in the assay on Magnaporthe grisea, the “Test A control value class” value was “H (more than 50% control value)”. Further, the “Test H control value class” value in assay [2] is given as “H (more than 50% control value)”. Further, in the assay with Plasmopara viticola, the “Test G control value class” value is listed as “H (more than 50% control value)”.
